The test system of the assay is osteoclast differentiation. The experiment in a line: Inhibitory effect on osteoclast differentiation, co-culture of bone marrow cells and osteoblast, TRAP staining. The following applies: Mus musculus, Osteoclast, 168 h, read-out: inhibitory effect on osteoclast differentiation(%). It is filed as cell-based, mouse. The method, then: The effect of the benzamidine derivative of the present invention on osteoclast formation and differentiation process was evaluated via co-culture with an osteoblast.
Tibia was aseptically ectomized from male 6 to 8-week-old ddY mice to harvest bone marrow cells by using a syringe (21G, Korea Green Cross). The bone marrow cells were suspended in 5 mL of an α-MEM medium (Gibco BRL Co., added with sodium bicarbonate (2.0 g/L), streptomycin (100 mg/L) and penicillin ([…]), filtered and then sterilized). The harvested cells were centrifuged at 600×g for 5 mins to collect the whole quantity. To remove the red blood cells in the bone marrow cells, 3 mL of Tris HCl (0.83% NH4Cl, pH 7.5) was added and well mixed. After centrifuging above cells, the numbers of the eukaryotic cells in the harvested bone marrow cells were counted and then immediately used for a co-culture system.
The progenitor bone and the parietal bone were aseptically ectomized from 1 to 2-day-old neonate ICR mice, washed with a phosphate butter solution (PBS) and treated with a mixed enzyme solution (of 0.2% collagenase and 0.1% dispase) sequentially (10, 10, 10, 20, 20 and 20 min), and then 3 to 6 groups of the cells which comprise lot of cells having the characteristics of the osteoblast were intensively collected and washed with a medium (a serum-free α-MEM). The washed cells were cultured in the α-MEM medium containing 10% FBS for 2 to 3 days. After subculturing, the collected cells were used for this experiment, and diluted to a concentration of 1×10^6 cells/mL for storage at −70[…].
The benzamidine derivative of the present invention was dissolved in a sterile distilled water or ethanol to dilute to a desired concentration. The final volume of the sample added to the cell culture medium was set at a ratio of 1:1000.
The bone marrow cells prepared in the above 1-1 and the osteoblast were co-cultured for osteoclast differentiation. Both the bone marrow cells (25,000 cells/cm^2) and the osteoblast (10,000 cells/cm^2) were plated in a 96-well plate using α-MEM medium containing FBS, and then cultured with the samples to be tested for 7 days. Differentiation factors, such as dexamethasone (10^−7 M) and vitamin D3 (10^−8 M), were also co-added to the medium from the first day of cultivation. The medium was changed with a fresh media containing a mixture of the samples and the differentiation factors every 2 to 3 days.
TRAP was used as a marker to measure the matured osteoclast in consideration of its characteristics showing a positive reaction to a TRAP staining solution. The TRAP staining solution was prepared in such the manner that 5 mg of naphtol AS-MS phosphate (sigma N-4875) as a substrate, and 25 mg of a coloring agent (Fast Red Violet LB salt) were dissolved in N,N-dimethylformamide (about 0.5 mL). 50 ml of a 0.1 N NaHCO3 buffer solution containing 50 mM tartaric acid (pH 5.0) was added thereto, and the mixture was stored at a refrigerator prior to use as a staining solution.
After culturing the cells for 7 days, the medium was removed from the wells, the cells were once washed with PBS, and then fixed with PBS containing 10% formalin for 2 to 5 min. The cells were fixed again in a mixed solution of ethanol and acetone (1/1) for about 1 min, and dried off. The cells were further treated by the TRAP staining solution for 15 mins and washed with water and dried off. The osteoclasts with 3 or more nuclei showing a TRAP-positive reaction were counted under a microscopic examination. Each of tests was confirmed over at least three times. The inhibitory effect on osteoclast differentiation of each experimental group, relative to negative controls, was expressed as a percentage (%).

[1] abbreviates: 1 μm, 7 days co-culture, TRAP-positive osteoclasts with 3 or more nuclei, relative to negative controls.

This passage reports inhibition results from patent publication US7943646B2, “Benzamidine derivative, process for the preparation thereof and pharmaceutical composition comprising same” (Dong Wha Pharmaceutical Co., Ltd., priority 2006, dated 2011).

Where two headings read alike, the source gives them in different places.

`Cc1nc(-c2ccc(OCCCCCOc3ccc(C(=N)NO)cc3)cc2)c(CCN2CCCCC2)s1` [Example 3, N-hydroxy-4-(5-{4-[2-methyl-5-(2-piperidin-1-yl-ethyl)-thiazol-4-yl]-phenoxy}-pentyloxy)-benzamidine]: the inhibition at 1 µM under setting [1] was 90.7%.
On to `Cc1nc(-c2ccc(OCCCCCOc3ccc(C(=N)NO)cc3)cc2)c(CCNCCN2CCOCC2)s1` [Example 4, N-hydroxy-4-[5-(4-{2-methyl-5-[2-(2-morpholin-4-yl-ethylamino)-ethyl]-thiazol-4-yl}-phenoxy)-pentyloxy]-benzamidine], for which the inhibition at 1 µM came out at 72.8%.
`Cc1nc(-c2ccc(OCCCCCOc3ccc(C(=N)NO)cc3)cc2)c(CCNCCCn2ccnc2)s1` [Example 5, N-hydroxy-4-[5-(4-{5-[2-(3-imidazol-1-yl-propylamino)-ethyl]-2-methyl-thiazol-4-yl}-phenoxy)-pentyloxy]-benzamidine]: under setting [1], the inhibition at 1 µM amounted to 93.5%.
On to `Cc1nc(-c2ccc(OCCCCCOc3ccc(C(=N)NO)cc3)cc2)c(CCNC(C)C)s1` [Example 6, N-hydroxy-4-(5-{4-[5-(2-isopropylamino-ethyl)-2-methyl-thiazol-4-yl]-phenoxy}-pentyloxy)-benzamidine], for which the inhibition at 1 µM worked out at 59%.
Turning to `Cc1nc(-c2ccc(OCCCCCOc3ccc(C(=N)NO)cc3)cc2)c(CCNCCCOC(C)C)s1` [Example 7, N-hydroxy-4-[5-(4-{5-[2-(3-isopropoxy-propylamino)-ethyl]-2-methyl-thiazol-4-yl}-phenoxy)-pentyloxy]-benzamidine], the inhibition at 1 µM under setting [1] worked out at 48%.
As to `Cc1nc(-c2ccc(OCCCCCOc3ccc(C(=N)NO)cc3)cc2)c(CCn2ccnc2)s1` [Example 9, N-hydroxy-4-(5-{4-[5-(2-imidazol-1-yl-ethyl)-2-methyl-thiazol-4-yl]-phenoxy}-pentyloxy)-benzamidine], the inhibition at 1 µM came out at 91.7%.
As for `Cc1nc(-c2ccc(OCCCCCOc3ccc(C(=N)NO)cc3)cc2)c(CCNC2CCCCC2)s1` [Example 10, N-hydroxy-4-(5-{4-[5-(2-cyclohexylamino-ethyl)-2-methyl-thiazol-4-yl]-phenoxy}-pentyloxy)-benzamidine], the inhibition at 1 µM under setting [1] stood at 55%.
Take `CCN(CC)CCc1sc(C)nc1-c1ccc(OCCCCCOc2ccc(C(=N)NO)cc2)cc1` [Example 11, N-hydroxy-4-(5-{4-[5-(2-diethylamino-ethyl)-2-methyl-thiazol-4-yl]-phenoxy}-pentyloxy)-benzamidine]: the inhibition at 1 µM was 70%.
The same measure, in the same setting: with `Cc1nc(-c2ccc(OCCCCCOc3ccc(C(=N)NO)cc3)cc2)c(CCN(CCO)CCO)s1` [Example 12, N-hydroxy-4-{5-[4-(5-{2-[bis-(2-hydroxy-ethyl)-amino]-ethyl)-2-methyl-thiazol-4-yl)-phenoxy]-pentyloxy}-benzamidine] the figure was 56%.
Take `Cc1nc(-c2ccc(OCCCCCOc3ccc(C(=N)NO)cc3)cc2)c(CCN(C(C)C)C(C)C)s1` [Example 13, N-hydroxy-4-(5-{4-[5-(2-diisopropylamino-ethyl)-2-methyl-thiazol-4-yl]-phenoxy}-pentyloxy)-benzamidine]: the inhibition at 1 µM under setting [1] was determined as 43%.
On to `Cc1nc(-c2ccc(OCCCCCOc3ccc(C(=N)NO)cc3)cc2)c(CCN2CC(C)OC(C)C2)s1` (stereo not drawn) [Example 14, N-hydroxy-4-[5-(4-{5-[2-(2,6-dimethyl-morpholin-4-yl)-ethyl]-2-methyl-thiazol-4-yl}-phenoxy)-pentyloxy]-benzamidine], for which the inhibition at 1 µM is 100%.
With `Cc1nc(-c2ccc(OCCCCCOc3ccc(C(=N)NO)cc3)cc2)c(CCN2CCSCC2)s1` [Example 15, N-hydroxy-4-(5-{4-[2-methyl-5-(2-thiomorpholin-4-yl-ethyl)-thiazol-4-yl]-phenoxy}-pentyloxy)-benzamidine], the inhibition at 1 µM under setting [1] was found to be 99%.
As to `N=C(NO)c1ccc(OCCCCCOc2ccc(-c3nc(N)sc3CCN3CCOCC3)cc2)cc1` [Example 16, N-hydroxy-4-(5-{4-[2-amino-5-(2-morpholin-4-yl-ethyl)-thiazol-4-yl]-phenoxy}-pentyloxy)-benzamidine], the inhibition at 1 µM was found to be 51%.
The same measure, in the same setting: the value for `Cc1nc(-c2ccc(OCCCCCOc3ccc(C(=N)NO)cc3)cc2)c(CCNCCN(C)C)s1` [Example 17, N-hydroxy-4-[5-(4-{5-[2-(2-dimethylamino-ethylamino)-ethyl]-2-methyl-thiazol-4-yl}-phenoxy)-pentyloxy]-benzamidine] was 40%.
Turning to `COCCN(CCOC)CCc1sc(C)nc1-c1ccc(OCCCCCOc2ccc(C(=N)NO)cc2)cc1` [Example 20, N-hydroxy-4-{5-[4-(5-{2-[bis-(2-methoxy-ethyl)-amino]-ethyl}-2-methyl-thiazol-4-yl)-phenoxy]-pentyloxy}-benzamidine], the inhibition at 1 µM is 94%.
Take `Cc1nc(-c2ccc(OCCCCCOc3ccc(C(=N)NO)cc3)cc2)c(CCNC(C)(C)C)s1` [Example 21, N-hydroxy-4-(5-{4-[5-(2-tert-butylamino-ethyl)-2-methyl-thiazol-4-yl]-phenoxy}-pentyloxy)-benzamidine]: the inhibition at 1 µM under setting [1] is 58%.
Regarding `Cc1nc(-c2ccc(OCCCCCOc3ccc(C(=N)NO)cc3)cc2)c(CCNCC(C)C)s1` [Example 22, N-hydroxy-4-(5-{4-[5-(2-isobutylamino-ethyl)-2-methyl-thiazol-4-yl]-phenoxy}-pentyloxy)-benzamidine], the inhibition at 1 µM under setting [1] came out at 61%.
As for `N=C(NO)c1ccc(OCCCCCOc2ccc(-c3nc(-c4cccnc4)sc3CCN3CCOCC3)cc2)cc1` [Example 23, N-hydroxy-4-(5-{4-[5-(2-morpholin-4-yl-ethyl)-2-pyridine-3-yl-thiazol-4-yl]-phenoxy}-pentyloxy)-benzamidine], the inhibition at 1 µM under setting [1] was determined as 91%.
On to `CN1CCN(CCc2sc(-c3cccnc3)nc2-c2ccc(OCCCCCOc3ccc(C(=N)NO)cc3)cc2)CC1` [Example 24, N-hydroxy-4-[5-(4-{5-[2-(4-methyl-piperazin-1-yl)-ethyl]-2-pyridine-3-yl-thiazol-4-yl}-phenoxy)-pentyloxy]-benzamidine], for which the inhibition at 1 µM amounted to 86%.
Turning to `N=C(NO)c1ccc(OCCCCCOc2ccc(-c3nc(-c4cccnc4)sc3CCN3CCSCC3)cc2)cc1` [Example 25, N-hydroxy-4-(5-{4-[2-pyridine-3-yl-5-(2-thiomorpholin-4-yl-ethyl)-thiazol-4-yl]-phenoxy}-pentyloxy)-benzamidine], the inhibition at 1 µM was determined as 65%.
Regarding `N=C(NO)c1ccc(OCCCCCOc2ccc(-c3nc(-c4cccnc4)sc3CCn3ccnc3)cc2)cc1` [Example 26, N-hydroxy-4-(5-{4-[5-(2-imidazol-1-yl-ethyl)-2-pyridine-3-yl-thiazol-4-yl]-phenoxy}-pentyloxy)-benzamidine], the inhibition at 1 µM worked out at 24%.
With `CC(C)c1nc(-c2ccc(OCCCCCOc3ccc(C(=N)NO)cc3)cc2)c(CCN2CCN(C)CC2)s1` [Example 28, N-hydroxy-4-[5-(4-{2-isopropyl-5-[2-(4-methyl-piperazin-1-yl)-ethyl]-thiazol-4-yl}-phenoxy)-pentyloxy]-benzamidine], under setting [1], the inhibition at 1 µM was determined as 90%.
Regarding `CC(C)c1nc(-c2ccc(OCCCCCOc3ccc(C(=N)NO)cc3)cc2)c(CCn2ccnc2)s1` [Example 29, N-hydroxy-4-(5-{4-[5-(2-imidazol-1-yl-ethyl)-2-isopropyl-thiazol-4-yl]-phenoxy}-pentyloxy)-benzamidine], the inhibition at 1 µM stood at 85%.
With `CC(C)c1nc(-c2ccc(OCCCCCOc3ccc(C(=N)NO)cc3)cc2)c(CCNCCN2CCOCC2)s1` [Example 30, N-hydroxy-4-[5-(4-{2-isopropyl-5-[2-(2-morpholin-4-yl-ethylamino)-ethyl]-thiazol-4-yl}-phenoxy)-pentyloxy]-benzamidine], under setting [1], the inhibition at 1 µM was 78%.
